tested on: Fibroblast; experiment: Anticancer activity against cobalt radiation CT-1 transformed fibroblasts; assay type: functional, cell-based

Point of comparison: `C=CCSS/C=C\C[S+]([O-])CCC` (stereo not drawn), IC50 17 µM. Against it:
- C=CCSS/C=C\C[S+]([O-])CCCO (stereo not drawn) — within 1.5-fold, 22.8 µM
- C=CCSS/C=C/C[S+]([O-])Cc1ccc(OC)cc1 (stereo not drawn) — 1.5-fold lower, 11.2 µM
- C=CCSS/C=C/C[S+]([O-])CCCN1C(=O)c2ccccc2C1=O (stereo not drawn) — 5.6-fold higher, 95.9 µM
- C=CCSS/C=C/C[S+]([O-])C(C)(C)C (stereo not drawn) — 1.9-fold higher, 33.1 µM
- C=CCSS/C=C\C[S+]([O-])CCCOCc1ccc(OC)cc1 (stereo not drawn) — within 1.5-fold, 21.7 µM
- C=CCSS/C=C/C[S+]([O-])CCC (stereo not drawn) — 1.6-fold higher, 26.7 µM
- C=CCSS/C=C/C[S+]([O-])CCCO (stereo not drawn) — within 1.5-fold, 23.1 µM
- C=CCSS/C=C/C[S+]([O-])Cc1ccccc1 (stereo not drawn) — within 1.5-fold, 16.6 µM
- C=CCSS/C=C/C[S+]([O-])CC=C (stereo not drawn) [AJOENE] — within 1.5-fold, 17.6 µM
- C=CCSS/C=C/C[S+]([O-])CCCOCc1ccc(OC)cc1 (stereo not drawn) — within 1.5-fold, 23.5 µM
- C=CCSS/C=C\C[S+]([O-])CC=C (stereo not drawn) [(Z)-Ajoene] — within 1.5-fold, 15.5 µM
- C=CCSS/C=C\C[S+]([O-])CCCN1C(=O)c2ccccc2C1=O (stereo not drawn) — 2-fold higher, 34.6 µM
